Assay results taken from US12612410B2 (CHILDREN'S HOSPITAL MEDICAL CENTER, priority 2020, dated 2026).

What follows are molecules tested against T1, FLT3 D835H (Homo sapiens, UniProt P36888, D835H) (assay: DiscoverX KINOMEscan competition binding, FLT3 D835H).
T1 construct: host or cells: E. coli BL21-derived host (T7 phage) or HEK-293
T1 sequence (P36888 27-993 D835H): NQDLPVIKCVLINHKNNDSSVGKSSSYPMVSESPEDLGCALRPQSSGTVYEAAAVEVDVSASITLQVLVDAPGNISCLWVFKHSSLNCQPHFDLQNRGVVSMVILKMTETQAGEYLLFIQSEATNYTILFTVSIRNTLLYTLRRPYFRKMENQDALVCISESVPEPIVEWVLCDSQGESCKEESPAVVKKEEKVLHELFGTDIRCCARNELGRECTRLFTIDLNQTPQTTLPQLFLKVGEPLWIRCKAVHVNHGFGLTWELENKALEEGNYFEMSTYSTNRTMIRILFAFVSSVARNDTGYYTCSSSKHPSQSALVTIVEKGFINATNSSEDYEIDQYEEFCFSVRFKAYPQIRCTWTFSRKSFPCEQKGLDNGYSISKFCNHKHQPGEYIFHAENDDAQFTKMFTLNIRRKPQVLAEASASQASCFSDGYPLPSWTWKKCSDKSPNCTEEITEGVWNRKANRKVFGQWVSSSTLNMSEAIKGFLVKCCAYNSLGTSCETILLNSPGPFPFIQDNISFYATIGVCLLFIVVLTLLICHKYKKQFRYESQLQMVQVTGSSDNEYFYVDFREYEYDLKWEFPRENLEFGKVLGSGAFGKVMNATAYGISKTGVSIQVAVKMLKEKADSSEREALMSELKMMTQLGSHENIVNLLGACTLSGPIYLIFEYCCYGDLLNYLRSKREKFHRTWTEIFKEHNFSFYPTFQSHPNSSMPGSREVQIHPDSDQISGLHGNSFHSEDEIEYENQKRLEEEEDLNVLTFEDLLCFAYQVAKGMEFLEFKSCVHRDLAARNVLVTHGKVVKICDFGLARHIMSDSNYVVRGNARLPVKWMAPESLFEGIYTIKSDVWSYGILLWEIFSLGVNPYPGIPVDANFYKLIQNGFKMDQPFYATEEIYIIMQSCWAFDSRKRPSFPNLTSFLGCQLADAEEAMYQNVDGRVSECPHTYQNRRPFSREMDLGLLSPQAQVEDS
From the text: Kinase binding data were obtained for various exemplary compounds prepared according to Examples 1-24 using the DiscoverX KINOMVIEscan® active site-directed competition binding site-directed assay protocol described below. […] As a result, the data report thermodynamic interaction affinities (Kd values), rather than IC50 values that are dependent on ATP concentrations. The assay uses a DNA-tagged version of the protein kinase, and an immobilized ligand bound to a solid support. Compounds that directly or indirectly prevent kinase binding to the immobilized ligand reduce the amount of kinase captured on the solid support, which is detected using an ultra-sensitive qPCR method. Affinity constants reported from the assay have been reported to be independent of the immobilized ligand used that is coupled to the solid support (See supplemental information in Fabian, M. A. et. al., (2005) Nat. Biotechnol. 23, 329-336; Wodicka, L. M. et. al., (2010) Chem. Biol. 17, 1241-1249.)
Kinase-tagged T7 phage strains were prepared in an E. coli host derived from the BL21 strain. E. coli were grown to log-phase and infected with T7 phage and incubated with shaking at 32° C. until lysis. The lysates were centrifuged and filtered to remove cell debris. The remaining kinases were produced in HEK-293 cells and subsequently tagged with DNA for qPCR detection. Streptavidin-coated magnetic beads were treated with biotinylated small molecule ligands for 30 minutes at room temperature to generate affinity resins for kinase assays. The liganded beads were blocked with excess biotin and washed with blocking buffer (SeaBlock (Pierce), 1% BSA, 0.05% Tween 20, 1 mM DTT) to remove unbound ligand and to reduce non-specific binding. Binding reactions were assembled by combining kinases, liganded affinity beads, and test compounds in 1× binding buffer (20% SeaBlock, 0.17×PBS, 0.05% Tween 20, 6 mM DTT). Test compounds were prepared as 111× stocks in 100% DMSO. Kds were determined using an 11-point 3-fold compound dilution series with three DMSO control points. All compounds for Kd measurements are distributed by acoustic transfer (non-contact dispensing) in 100% DMSO. The compounds were then diluted directly into the assays such that the final concentration of DMSO was 0.9%. All reactions were performed in polypropylene 384-well plates. Each was a final volume of 0.02 mL. The assay plates were incubated at room temperature with shaking for 1 hour and the affinity beads were washed with wash buffer (1×PBS, 0.05% Tween 20). The beads were then re-suspended in elution buffer (1×PBS, 0.05% Tween 20, 0.5 μM nonbiotinylated affinity ligand) and incubated at room temperature with shaking for 30 minutes. The kinase concentration in the eluates was measured by qPCR.
Binding constants (Kds) were calculated with a standard dose-response curve using the Hill equation. The Hill Slope was set to −1. Curves were fitted using a non-linear least square fit with the Levenberg-Marquardt algorithm.

Row | Kd | Compound
1 | 0.066 nM | CC1(c2cn3c(-c4cccc(N[C@H]5CNC[C@@H]5F)n4)cnc3cn2)CC1 [Compound 1, N-((3S,4S)-4-fluoropyrrolidin-3-yl)-6-(6-(1-methylcyclopropyl)imidazo[1,2-a]pyrazin-3-yl)pyridin-2-amine]
2 | 0.059 nM | CC1(c2cn3c(-c4cccc(N[C@@H]5CCNC5)n4)cnc3cn2)CC1 [Compound 3, (R)-6-(6-(1-methylcyclopropyl)imidazo[1,2-a]pyrazin-3-yl)-N-(pyrrolidin-3-yl)pyridin-2-amine]
3 | 0.063 nM | CC1(c2cn3c(-c4cccc(N[C@H]5CNCC56CC6)n4)cnc3cn2)CC1 [Compound 5, (R)-N-(6-(6-(1-methylcyclopropyl)imidazo[1,2-a]pyrazin-3-yl)pyridin-2-yl)-5-azaspiro[2.4]heptan-7-amine]
4 | 0.082 nM | FC(F)(F)C1(c2cn3c(-c4cccc(N[C@@H]5CCNC5)n4)cnc3cn2)CC1 [Compound 10, (R)-N-(pyrrolidin-3-yl)-6-(6-(1-(trifluoromethyl)cyclopropyl)imidazo[1,2-a]pyrazin-3-yl)pyridin-2-amine]
5 | 0.2 nM | FC(F)c1cn2c(-c3cccc(N[C@H]4CNC[C@@H]4F)n3)cnc2cn1 [Compound 16, 6-(6-(difluoromethyl)imidazo[1,2-a]pyrazin-3-yl)-N-((3S,4S)-4-fluoropyrrolidin-3-yl)pyridin-2-amine]
6 | 0.18 nM | FC(F)c1cn2c(-c3cccc(N[C@H]4CNCC[C@@H]4F)n3)cnc2cn1 [Compound 25, 6-(6-(difluoromethyl)imidazo[1,2-a]pyrazin-3-yl)-N-((3S,4S)-4-fluoropiperidin-3-yl)pyridin-2-amine]
7 | 1.2 nM | CC(C)(O)c1cn2c(-c3cccc(N[C@@H]4CCCNC4)n3)cnc2cn1 [Compound 30, (R)-2-(3-(6-(piperidin-3-ylamino)pyridin-2-yl)imidazo[1,2-a]pyrazin-6-yl)propan-2-ol]
8 | 0.43 nM | CC(C)(O)c1cn2c(-c3cccc(N[C@H]4CNCC[C@@H]4F)n3)cnc2cn1 [Compound 31, 2-(3-(6-(((3S,4S)-4-fluoropiperidin-3-yl)amino)pyridin-2-yl)imidazo[1,2-a]pyrazin-6-yl)propan-2-ol]
9 | 0.24 nM | FC(F)(F)COc1cn2c(-c3cccc(N[C@@H]4CCNC4)n3)cnc2cn1 [Compound 38, (R)-N-(pyrrolidin-3-yl)-6-(6-(2,2,2-trifluoroethoxy)imidazo[1,2-a]pyrazin-3-yl)pyridin-2-amine]
10 | 0.032 nM | F[C@H]1CNC[C@@H]1Nc1cccc(-c2cnc3cnc(C4CC4)cn23)n1 [Compound 50, 6-(6-cyclopropylimidazo[1,2-a]pyrazin-3-yl)-N-((3S,4S)-4-fluoropyrrolidin-3-yl)pyridin-2-amine]
11 | 0.078 nM | Cn1cc(-c2cn3c(-c4cccc(N[C@H]5CNC[C@@H]5F)n4)cnc3cn2)cn1 [Compound 52, N-((3S,4S)-4-fluoropyrrolidin-3-yl)-6-(6-(1-methyl-1H-pyrazol-4-yl)imidazo[1,2-a]pyrazin-3-yl)pyridin-2-amine]
